IC50 data for one molecule are collected here from PMC9381133 (Molecular Cancer Therapeutics, 2022).

This assay deals with T1, CD73 (ecto-5′-nucleotidase) (Mus musculus, UniProt Q61503).
T1 sequence (Q61503 29-551): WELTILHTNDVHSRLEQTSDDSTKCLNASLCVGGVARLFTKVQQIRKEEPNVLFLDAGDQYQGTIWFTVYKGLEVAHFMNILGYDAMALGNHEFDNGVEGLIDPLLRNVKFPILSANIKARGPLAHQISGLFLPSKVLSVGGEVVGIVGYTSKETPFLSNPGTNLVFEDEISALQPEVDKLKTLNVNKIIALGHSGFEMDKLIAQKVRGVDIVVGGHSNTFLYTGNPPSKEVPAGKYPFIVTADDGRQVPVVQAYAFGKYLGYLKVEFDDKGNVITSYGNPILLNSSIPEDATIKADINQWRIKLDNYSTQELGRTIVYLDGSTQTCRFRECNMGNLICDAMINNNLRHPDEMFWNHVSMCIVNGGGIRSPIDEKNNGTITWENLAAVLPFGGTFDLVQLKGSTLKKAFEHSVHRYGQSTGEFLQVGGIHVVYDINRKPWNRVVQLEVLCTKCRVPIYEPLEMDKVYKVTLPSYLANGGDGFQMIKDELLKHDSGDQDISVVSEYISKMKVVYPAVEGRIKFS
In words: […]5-AMP hydrolysis in B16F10 tumor homogenate, LC/MS of […]5-adenosine. The assay is classed as biochemical.

Turning to `C[C@H](Nc1cc(Cl)nc2c1cnn2[C@@H]1O[C@H](COP(=O)(O)CP(=O)(O)O)[C@@H](O)[C@H]1O)c1ccccc1F` [AB680], 0.704 nM corresponded to half-maximal inhibition (IC50).
